The target of test [1] is T1, Muscarinic acetylcholine receptor M1 (Homo sapiens, UniProt P11229).
T1 sequence (P11229 whole entry): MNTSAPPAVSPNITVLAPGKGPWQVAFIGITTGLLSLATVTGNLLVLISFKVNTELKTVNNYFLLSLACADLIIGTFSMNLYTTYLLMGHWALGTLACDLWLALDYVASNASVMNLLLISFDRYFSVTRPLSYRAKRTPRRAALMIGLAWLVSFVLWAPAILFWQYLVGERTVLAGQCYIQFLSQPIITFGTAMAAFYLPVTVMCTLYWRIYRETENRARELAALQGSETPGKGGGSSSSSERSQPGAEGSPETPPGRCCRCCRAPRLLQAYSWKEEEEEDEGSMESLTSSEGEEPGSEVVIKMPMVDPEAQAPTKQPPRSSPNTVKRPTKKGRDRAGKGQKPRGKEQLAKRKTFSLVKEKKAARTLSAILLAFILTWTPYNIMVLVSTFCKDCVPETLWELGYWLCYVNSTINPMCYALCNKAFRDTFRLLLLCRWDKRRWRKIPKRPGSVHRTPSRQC
The class given is functional, cell-based.

Test [2] concerns the target 3',5'-cyclic-AMP phosphodiesterase 4A (Homo sapiens, UniProt P27815). The class given is functional.
Test [3] has as its target T2, cGMP-inhibited 3',5'-cyclic phosphodiesterase 3A (Homo sapiens, UniProt Q14432). The class given is functional.
The target of test [4] is D(3) dopamine receptor (Homo sapiens, UniProt P35462).
Sequence of D(3) dopamine receptor (P35462 whole entry): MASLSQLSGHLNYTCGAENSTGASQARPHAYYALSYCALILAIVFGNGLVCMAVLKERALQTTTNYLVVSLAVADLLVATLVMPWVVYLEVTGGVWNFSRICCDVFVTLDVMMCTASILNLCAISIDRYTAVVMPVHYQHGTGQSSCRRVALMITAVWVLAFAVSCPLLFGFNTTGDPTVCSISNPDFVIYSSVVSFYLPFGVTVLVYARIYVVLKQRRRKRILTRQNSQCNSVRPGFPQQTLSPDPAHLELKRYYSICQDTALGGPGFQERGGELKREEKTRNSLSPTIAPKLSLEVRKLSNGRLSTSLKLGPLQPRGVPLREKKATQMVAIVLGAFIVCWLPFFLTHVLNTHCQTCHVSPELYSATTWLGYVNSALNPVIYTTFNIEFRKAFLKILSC
Test [5] has as its target T3, Prostaglandin G/H synthase 1 (Rattus norvegicus, UniProt Q63921).
T3 sequence (Q63921 whole entry): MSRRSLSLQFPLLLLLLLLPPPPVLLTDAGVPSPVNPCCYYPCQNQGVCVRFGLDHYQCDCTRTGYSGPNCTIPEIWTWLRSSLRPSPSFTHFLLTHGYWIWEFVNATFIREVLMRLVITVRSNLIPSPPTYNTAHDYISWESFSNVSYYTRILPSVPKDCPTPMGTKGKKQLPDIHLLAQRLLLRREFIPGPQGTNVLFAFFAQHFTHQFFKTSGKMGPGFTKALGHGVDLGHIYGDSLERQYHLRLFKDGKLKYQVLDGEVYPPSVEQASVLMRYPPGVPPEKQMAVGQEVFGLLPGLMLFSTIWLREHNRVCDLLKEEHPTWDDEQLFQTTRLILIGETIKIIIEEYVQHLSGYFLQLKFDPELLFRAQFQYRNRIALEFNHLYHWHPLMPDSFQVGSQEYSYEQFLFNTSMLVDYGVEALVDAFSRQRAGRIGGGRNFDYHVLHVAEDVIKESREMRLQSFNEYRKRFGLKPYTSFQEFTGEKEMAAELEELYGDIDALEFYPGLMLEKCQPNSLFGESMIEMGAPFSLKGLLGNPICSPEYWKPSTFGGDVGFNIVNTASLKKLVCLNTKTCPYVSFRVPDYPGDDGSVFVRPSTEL
The class given is functional.

Test [6] has as its target T4, Endothelin-1 receptor (Homo sapiens, UniProt P25101).
T4 sequence (P25101 whole entry): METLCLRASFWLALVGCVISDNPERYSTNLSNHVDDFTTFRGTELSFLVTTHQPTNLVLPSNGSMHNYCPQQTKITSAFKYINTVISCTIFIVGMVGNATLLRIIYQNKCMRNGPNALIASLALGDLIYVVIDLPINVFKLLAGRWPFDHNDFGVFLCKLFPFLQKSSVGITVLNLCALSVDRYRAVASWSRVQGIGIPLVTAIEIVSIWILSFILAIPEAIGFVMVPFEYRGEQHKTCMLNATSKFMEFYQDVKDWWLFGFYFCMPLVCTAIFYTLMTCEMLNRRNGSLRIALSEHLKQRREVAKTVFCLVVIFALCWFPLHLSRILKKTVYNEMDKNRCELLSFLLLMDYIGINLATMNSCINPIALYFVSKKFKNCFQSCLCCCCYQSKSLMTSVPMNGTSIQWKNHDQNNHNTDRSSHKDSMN

Test [7] deals with T2, cGMP-inhibited 3',5'-cyclic phosphodiesterase 3A. The class given is functional. The source holds these as a separate data set.
The target in test [8] is D(1A) dopamine receptor (Homo sapiens, UniProt P21728). The class given is functional, cell-based.
Sequence of D(1A) dopamine receptor (P21728 whole entry): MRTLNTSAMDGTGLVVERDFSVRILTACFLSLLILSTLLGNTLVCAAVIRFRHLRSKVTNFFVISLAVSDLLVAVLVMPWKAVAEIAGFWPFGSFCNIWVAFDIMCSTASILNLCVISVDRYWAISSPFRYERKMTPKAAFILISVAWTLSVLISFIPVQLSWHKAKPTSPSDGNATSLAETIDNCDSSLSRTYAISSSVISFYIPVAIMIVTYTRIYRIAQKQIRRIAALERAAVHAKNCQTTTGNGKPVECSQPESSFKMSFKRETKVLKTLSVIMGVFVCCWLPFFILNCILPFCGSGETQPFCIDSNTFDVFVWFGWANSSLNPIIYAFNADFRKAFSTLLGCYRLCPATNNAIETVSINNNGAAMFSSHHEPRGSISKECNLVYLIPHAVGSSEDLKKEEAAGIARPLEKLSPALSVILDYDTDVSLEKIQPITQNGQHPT
Test [9] addresses T5, 5-hydroxytryptamine receptor 2C (Homo sapiens, UniProt P28335).
T5 sequence (P28335 whole entry): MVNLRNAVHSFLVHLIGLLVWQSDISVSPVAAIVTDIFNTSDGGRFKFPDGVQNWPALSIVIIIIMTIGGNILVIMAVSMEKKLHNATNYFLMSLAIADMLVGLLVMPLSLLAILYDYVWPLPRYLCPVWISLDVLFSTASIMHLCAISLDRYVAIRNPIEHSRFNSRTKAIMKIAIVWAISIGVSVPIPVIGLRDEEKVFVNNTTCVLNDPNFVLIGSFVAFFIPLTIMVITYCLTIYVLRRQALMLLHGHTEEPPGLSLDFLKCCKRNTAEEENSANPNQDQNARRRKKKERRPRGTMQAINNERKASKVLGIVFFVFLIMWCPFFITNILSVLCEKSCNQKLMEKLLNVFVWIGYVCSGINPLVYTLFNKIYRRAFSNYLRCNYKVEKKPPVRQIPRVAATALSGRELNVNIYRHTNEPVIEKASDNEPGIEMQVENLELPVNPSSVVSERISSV

The target in test [10] is T6, Equilibrative nucleoside transporter 1 (Homo sapiens, UniProt Q99808).
T6 sequence (Q99808 whole entry): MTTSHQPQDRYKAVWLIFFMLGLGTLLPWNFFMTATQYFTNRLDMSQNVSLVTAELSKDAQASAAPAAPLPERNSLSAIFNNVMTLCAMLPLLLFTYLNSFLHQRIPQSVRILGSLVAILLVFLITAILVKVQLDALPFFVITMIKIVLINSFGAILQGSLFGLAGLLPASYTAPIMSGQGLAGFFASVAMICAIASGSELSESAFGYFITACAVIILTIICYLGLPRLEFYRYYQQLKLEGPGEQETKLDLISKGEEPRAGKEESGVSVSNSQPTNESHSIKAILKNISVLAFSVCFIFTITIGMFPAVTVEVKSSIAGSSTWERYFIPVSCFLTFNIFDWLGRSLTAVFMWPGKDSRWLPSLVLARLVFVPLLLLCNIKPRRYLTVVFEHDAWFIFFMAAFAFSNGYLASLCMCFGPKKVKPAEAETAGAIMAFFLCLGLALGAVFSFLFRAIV

For test [11], the target named is 5-hydroxytryptamine receptor 2A (Homo sapiens, UniProt P28223). Format: functional, cell-based.
Sequence of 5-hydroxytryptamine receptor 2A (P28223 whole entry): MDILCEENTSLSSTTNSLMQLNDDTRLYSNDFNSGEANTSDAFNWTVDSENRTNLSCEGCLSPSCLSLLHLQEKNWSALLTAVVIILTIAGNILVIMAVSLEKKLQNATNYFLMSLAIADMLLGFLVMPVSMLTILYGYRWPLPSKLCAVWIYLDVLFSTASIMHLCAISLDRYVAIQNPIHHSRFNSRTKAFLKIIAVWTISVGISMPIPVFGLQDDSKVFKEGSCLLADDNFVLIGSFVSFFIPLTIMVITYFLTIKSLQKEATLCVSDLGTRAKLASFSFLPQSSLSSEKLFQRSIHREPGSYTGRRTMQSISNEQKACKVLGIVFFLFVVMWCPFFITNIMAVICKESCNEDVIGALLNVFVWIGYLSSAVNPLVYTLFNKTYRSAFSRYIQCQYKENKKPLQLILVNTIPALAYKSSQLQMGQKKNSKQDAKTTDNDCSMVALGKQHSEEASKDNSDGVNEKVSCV
Test [12] concerns the target Glutamate receptor ionotropic, NMDA 1 (Rattus norvegicus, UniProt P35439).
Test [13] addresses Beta-2 adrenergic receptor (Homo sapiens, UniProt P07550). Format: functional, cell-based.

Bounds are passed on as bounds.
Also: assay procedure not described here.

Sequence of Beta-2 adrenergic receptor (P07550 whole entry): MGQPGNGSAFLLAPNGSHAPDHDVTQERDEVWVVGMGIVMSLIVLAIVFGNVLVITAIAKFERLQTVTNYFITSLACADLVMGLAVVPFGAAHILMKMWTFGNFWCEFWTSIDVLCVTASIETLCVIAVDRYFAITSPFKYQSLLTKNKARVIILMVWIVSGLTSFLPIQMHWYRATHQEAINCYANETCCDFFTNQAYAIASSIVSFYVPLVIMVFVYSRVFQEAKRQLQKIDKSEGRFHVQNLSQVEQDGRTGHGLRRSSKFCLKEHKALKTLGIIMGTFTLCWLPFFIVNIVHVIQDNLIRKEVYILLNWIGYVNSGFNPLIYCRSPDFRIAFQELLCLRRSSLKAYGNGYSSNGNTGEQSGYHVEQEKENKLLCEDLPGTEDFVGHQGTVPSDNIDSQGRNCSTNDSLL
T2 sequence (Q14432 whole entry): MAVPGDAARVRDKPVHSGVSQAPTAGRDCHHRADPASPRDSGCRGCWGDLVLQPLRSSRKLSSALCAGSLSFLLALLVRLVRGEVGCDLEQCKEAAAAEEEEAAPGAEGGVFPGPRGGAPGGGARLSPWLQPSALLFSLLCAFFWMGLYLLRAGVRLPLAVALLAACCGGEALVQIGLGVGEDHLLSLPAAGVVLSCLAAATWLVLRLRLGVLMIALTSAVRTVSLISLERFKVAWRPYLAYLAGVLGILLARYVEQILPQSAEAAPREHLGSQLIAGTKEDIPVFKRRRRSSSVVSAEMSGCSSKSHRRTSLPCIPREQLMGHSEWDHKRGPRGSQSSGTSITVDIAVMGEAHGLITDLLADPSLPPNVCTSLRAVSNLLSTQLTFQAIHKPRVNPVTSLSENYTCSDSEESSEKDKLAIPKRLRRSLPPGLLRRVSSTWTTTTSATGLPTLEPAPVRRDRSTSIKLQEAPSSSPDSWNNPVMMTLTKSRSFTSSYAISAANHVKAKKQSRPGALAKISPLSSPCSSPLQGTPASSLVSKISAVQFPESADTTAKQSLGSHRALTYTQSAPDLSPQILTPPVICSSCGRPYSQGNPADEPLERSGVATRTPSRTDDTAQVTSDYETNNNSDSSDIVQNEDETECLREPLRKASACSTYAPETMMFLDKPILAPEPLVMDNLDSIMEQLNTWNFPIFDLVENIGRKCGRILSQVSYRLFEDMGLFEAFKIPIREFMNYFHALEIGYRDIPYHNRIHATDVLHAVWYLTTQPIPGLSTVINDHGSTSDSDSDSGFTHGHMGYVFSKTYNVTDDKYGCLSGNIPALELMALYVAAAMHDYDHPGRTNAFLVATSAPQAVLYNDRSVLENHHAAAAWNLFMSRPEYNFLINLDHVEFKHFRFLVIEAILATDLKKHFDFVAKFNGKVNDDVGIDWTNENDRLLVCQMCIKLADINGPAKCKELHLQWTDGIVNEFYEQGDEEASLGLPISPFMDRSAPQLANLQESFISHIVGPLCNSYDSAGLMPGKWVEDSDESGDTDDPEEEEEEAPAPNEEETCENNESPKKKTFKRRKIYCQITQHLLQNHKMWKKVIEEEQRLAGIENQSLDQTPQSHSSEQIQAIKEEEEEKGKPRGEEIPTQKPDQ
Sequence of 3',5'-cyclic-AMP phosphodiesterase 4A (P27815 whole entry): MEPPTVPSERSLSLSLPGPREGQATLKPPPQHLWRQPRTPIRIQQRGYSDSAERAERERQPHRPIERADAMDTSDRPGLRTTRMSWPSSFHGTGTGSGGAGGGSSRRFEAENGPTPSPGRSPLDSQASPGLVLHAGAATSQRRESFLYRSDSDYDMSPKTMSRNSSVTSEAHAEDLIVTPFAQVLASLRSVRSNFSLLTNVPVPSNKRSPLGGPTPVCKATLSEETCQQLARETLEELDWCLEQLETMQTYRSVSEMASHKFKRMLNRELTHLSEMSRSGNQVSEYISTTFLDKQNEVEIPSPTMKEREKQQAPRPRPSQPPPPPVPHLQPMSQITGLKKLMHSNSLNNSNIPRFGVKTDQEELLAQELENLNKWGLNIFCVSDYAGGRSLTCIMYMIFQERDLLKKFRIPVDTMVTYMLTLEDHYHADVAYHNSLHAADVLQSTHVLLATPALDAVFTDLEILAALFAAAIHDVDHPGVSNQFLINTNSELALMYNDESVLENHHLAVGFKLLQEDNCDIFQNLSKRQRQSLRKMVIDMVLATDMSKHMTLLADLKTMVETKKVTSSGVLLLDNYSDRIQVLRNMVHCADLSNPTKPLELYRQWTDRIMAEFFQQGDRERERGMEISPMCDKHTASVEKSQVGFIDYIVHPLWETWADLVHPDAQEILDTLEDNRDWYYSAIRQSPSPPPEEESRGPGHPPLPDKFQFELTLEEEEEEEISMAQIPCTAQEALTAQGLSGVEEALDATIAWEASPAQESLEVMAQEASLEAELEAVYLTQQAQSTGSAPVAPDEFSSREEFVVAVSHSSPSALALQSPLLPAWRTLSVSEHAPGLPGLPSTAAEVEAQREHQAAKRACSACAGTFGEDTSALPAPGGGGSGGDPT

In general, AC50 refers to the concentration at which the activity in the assay is half-maximal. A low value points to greater potency. Consider `O=C(O)c1cc(O)ccc1O` [GENTISIC ACID], for which the half-maximal activity concentration (AC50) in [1] was over 30 µM; in test [2], over 30 µM; in test [3], over 30 µM; in [4], over 30 µM; in [5], 18 µM.
As for `CC[C@H]1[C@@H](O)[C@@H]2[C@H](CC[C@]3(C)[C@@H]([C@H](C)CCC(=O)O)CC[C@@H]23)[C@@]2(C)CC[C@@H](O)C[C@@H]12` [OBETICHOLIC ACID], the half-maximal activity concentration (AC50) in test [6], in [7], in [8], in test [9], in test [1] and in test [10] was over 30 µM each time. Besides, the concentration at half-maximal activity (AC50) in test [2] is over 30 µM; in [3] it was over 30 µM; in test [11] it was over 30 µM; in test [12], over 30 µM; in test [4] it was over 30 µM; in [5], 27 µM.
On to `CCCN1C[C@H](CSC)C[C@@H]2c3cccc4[nH]cc(c34)C[C@H]21` [PERGOLIDE], for which the AC50 in [6] was over 30 µM; in test [7] it was over 30 µM; in test [13], over 30 µM; in [10], over 30 µM; in [12], over 10 µM; in test [5], over 30 µM.
With `Cc1ccc(-c2cc(C(F)(F)F)nn2-c2ccc(S(N)(=O)=O)cc2)cc1` [CELECOXIB], the AC50 is over 30 µM in [6]; over 30 µM in test [7]; over 30 µM in test [13]; over 10 µM in [8]; over 30 µM in [9]; 24.4 µM in test [10]. In addition, in test [12], the AC50 is over 10 µM.
Consider `C1CCC(C(CC2CCCCN2)C2CCCCC2)CC1` (stereo not given) [PERHEXILINE], for which the concentration at half-maximal activity (AC50) in test [6], in test [7], in [13], in [8], in test [9] and in test [10] was over 30 µM each time. In addition, the concentration at half-maximal activity (AC50) in test [5] was over 30 µM.
Turning to `C[C@H]1CNCCc2ccc(Cl)cc21` [LORCASERIN], the half-maximal activity concentration (AC50) in [6], in test [7], in test [13], in test [8], in test [10] and in test [5] was over 30 µM in each case.
For `CN(C)CCn1nnnc1SCC1=C(C(=O)O)N2C(=O)[C@@H](NC(=O)Cc3csc(N)n3)[C@H]2SC1` [CEFOTIAM], the AC50 in test [1], in test [2], in test [3] and in test [4] was over 30 µM throughout.
`N[C@@H]1[C@H]2CN(c3nc4c(cc3F)c(=O)c(C(=O)O)cn4-c3ccc(F)cc3F)C[C@@H]12` [TROVAFLOXACIN]: the AC50 in test [6], in test [7], in test [13], in test [8], in test [9] and in [10] was over 30 µM in each case. Further, in [5], the concentration at half-maximal activity (AC50) was over 30 µM.
For the compound `C=C[C@H]1C[N@@]2CC[C@H]1C[C@H]2[C@H](O)c1ccnc2ccc(OC)cc12` [QUININE], the AC50 in [1], in [2], in test [3] and in [4] was over 30 µM each time.
Take `C=CCc1ccccc1OCC(O)CNC(C)C` (stereo not given) [ALPRENOLOL]: the AC50 in test [6] was over 30 µM; in test [7], over 30 µM; in test [8] it was over 30 µM; in test [9], over 30 µM; in test [1], over 0.3 µM; in [10], over 30 µM. In addition, the AC50 in test [2] is over 0.3 µM; in [3] it was over 0.3 µM; in test [11], over 30 µM; in [12] it was over 30 µM; in test [4] it was over 0.3 µM; in test [5], over 30 µM.
In the case of `Cc1cc(C#N)cc(C)c1Oc1nc(Nc2ccc(C#N)cc2)nc(N)c1Br` [ETRAVIRINE], the AC50 in [1] is 2.71 µM; in [2], over 30 µM; in test [3] it was over 30 µM; in test [4], over 30 µM.
Regarding `CC(C)(C)NC[C@H](O)COc1ccccc1C1CCCC1` [PENBUTOLOL], the AC50 was 13.5 µM in test [1], over 10 µM in test [2], over 30 µM in [3] and 7.74 µM in [4].
As for `N[C@@H](C(=O)N[C@@H]1C(=O)N2C(C(=O)O)=C(Cl)CC[C@H]12)c1ccccc1` [LORACARBEF ANHYDROUS], the half-maximal activity concentration (AC50) in test [1], in test [2], in test [3] and in test [4] was over 30 µM each time.
With `CN(C)[C@@H](c1cccc(O)c1)[C@H]1CCCC[C@H]1O` [CIRAMADOL], the half-maximal activity concentration (AC50) in test [1], in test [2], in [3] and in [4] was over 30 µM throughout.
For the compound `COC(c1ccccc1)(c1ccccc1)[C@H](Oc1nc(C)cc(C)n1)C(=O)O` [AMBRISENTAN], the half-maximal activity concentration (AC50) in test [1], in test [2], in [3] and in [4] was over 30 µM in each case.
For the compound `CC1(C)NC(=O)N(c2ccc([N+](=O)[O-])c(C(F)(F)F)c2)C1=O` [NILUTAMIDE], the AC50 in [7] is over 30 µM; in test [8], over 30 µM; in test [9] it was over 30 µM; in test [1], over 3 µM; in test [10], over 30 µM; in test [2], over 30 µM. Moreover, the AC50 in test [3], in [11], in test [12], in [4] and in [5] was over 30 µM throughout.
As to `CCOC(=O)[C@H](CCc1ccccc1)N[C@@H](C)C(=O)N1[C@H](C(=O)O)C[C@H]2CCCC[C@@H]21` [TRANDOLAPRIL], the AC50 in [1], in test [2], in test [3] and in test [4] was over 30 µM each time.
